The results in this text go back to publication PMC4019636, “Rational Design of Berberine-Based FtsZ Inhibitors with Broad-Spectrum Antibacterial Activity” (PLoS ONE, 2014).

Experiment [1] deals with T1, S. aureus FtsZ (Staphylococcus aureus, UniProt P0A031).
T1 construct: made in house; host or cells: E. coli BL21(DE3)
T1 sequence (P0A031 1-390): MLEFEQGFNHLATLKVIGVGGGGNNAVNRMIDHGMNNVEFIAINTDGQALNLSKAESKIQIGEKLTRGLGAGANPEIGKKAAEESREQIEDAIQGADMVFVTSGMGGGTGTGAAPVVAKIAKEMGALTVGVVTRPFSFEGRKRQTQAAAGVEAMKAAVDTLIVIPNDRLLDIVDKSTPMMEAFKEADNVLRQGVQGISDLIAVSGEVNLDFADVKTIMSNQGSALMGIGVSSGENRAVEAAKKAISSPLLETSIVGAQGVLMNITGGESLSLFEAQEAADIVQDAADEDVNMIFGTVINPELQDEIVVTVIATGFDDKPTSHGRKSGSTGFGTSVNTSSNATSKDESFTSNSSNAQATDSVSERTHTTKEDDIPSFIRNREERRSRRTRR
Nature of the experiment: GTPase activity assay. The experiment is classed as biochemical. The conditions noted are these: for GTPase activity of S. aureus FtsZ: 0.44 in its absence. As to the method: (§1) E. coli BL21(DE3) cells were transformed with the pRSET-A-S vector carrying S. aureus FtsZ with a 6-histidine tag attached at its N-terminus under the control of a T7 promoter. […] When the OD600 reached 0.8, protein expression was induced with 0.4 mM isopropyl-β-D-thiogalactopyranoside (IPTG) for 4 h. Cells were harvested by centrifugation at 9000 rpm for 20 min at 4°C. The cell pellet was resuspended in 20 mL of solubilization buffer (50 mM Tris-HCl, 150 mM NaCl, 1 mM PMSF and 1 mM EDTA, pH 7.4) and then lysed with 1 mg/mL of lysozyme. The mixture was incubated for 1 h on ice. The cells were disrupted by sonication and the crude lysate obtained was centrifuged at 13,000 rpm for 1 h at 4°C. The supernatant containing 6-histidine tagged S. aureus FtsZ was collected and loaded onto a nickel charged HiTrap chelating column pre-equilibrated with starting buffer (20 mM sodium phosphate buffer, 0.5 M NaCl, pH 7.4). The column was then washed with 8 column volumes of the starting buffer to remove the unbound proteins, and the histidine-tagged enzyme was eluted by a linear gradient of 0−0.2 M imidazole. Fractions containing S. aureus FtsZ were pooled, buffer-exchanged with 20 mM NH4HCO3 (pH 8.0) at 4°C, lyophilized, and stored at −20°C. A stock solution of S. aureus FtsZ for the subsequent bioassay was prepared from the lyophilized powder.
The GTPase activity of recombinant S. aureus FtsZ was measured in 96-well microplates using a CytoPhos phosphate assay Biochem Kit (Cytoskeleton, USA) according to an optimized protocol and the manufacturer’s instructions. S. aureus FtsZ (3.5 µM) was preincubated with vehicle (1% DMSO) or different concentrations of each test compound in 50 mM 4-morpholinepropanesulfonic acid buffer (MOPS, pH 6.5) for 10 min at 25°C. Then 5 mM of MgCl2 and 200 mM of KCl were added. Reactions were started with the addition of 500 µM GTP and incubated at 37°C. After 30 min, the reactions were quenched by adding 100 µL of Cytophos reagent for 10 min. Inorganic phosphate was quantified by measuring the absorbance at 650 nm with a microplate reader (Bio-Rad laboratory Ltd., UK). The relative IC50 values were determined by nonlinear regression using a sigmoidal concentration-response curve in the Origin software v6. For the rate of GTPase activity of S. aureus FtsZ, different concentrations of fresh prepared FtsZ (3, 6, 9, 12, 15 µM) was preincubated with vehicle (1% DMSO) or 25 µM, 50 µM compound 2, following the same condition. The data were plotted via Origin software v6. Three independent assays were performed for all the tests.

For experiment [2], the target named is T1, S. aureus FtsZ. Nature of the experiment: Transmission electron microscopy of FtsZ polymers. Format: biochemical. As to conditions: FtsZ 12 µM, TEM. Here is the method: as §1, with “powder. […]” for “powder.”
The subject of another experiment is E. faecium ATCC 49624. Nature of the experiment: Antimicrobial susceptibility assay (broth microdilution MIC). Format: cell-based. As to conditions: Enterococcus faecium, ATCC49624; E. faecium ATCC 49624; brain heart infusion broth, 18 h at 37°C; growth inhibited by ≥90%; read-out: MIC. An excerpt:
(§2) The bacterial strains S. aureus ATCC 29213, S. aureus ATCC 29247, S. aureus ATCC BAA-41, E. faecium ATCC 49624, E. faecium ATCC 700221, E. faecalis ATCC 29212, S. epidermidis ATCC 12228, E. coli ATCC 25922, and K. pneumoniae ATCC BAA-1144 used in the antimicrobial susceptibility assays were purchased from American Type Culture Collection (ATCC, USA). B. subtilis strain 168 was already available in our in-house collection. E. coli JM109 WM647 was kindly provided by Dr. W. Margolin (University of Texas-Houston Medical School). FM 4–64 was purchased from Invitrogen (Eugene, Oregon). All other chemicals and reagents were purchased from Sigma-Aldrich. Stock solutions were prepared in DMSO. The final percentage of DMSO in the assays was 1% (v/v) for all experiments.
(§3) Antimicrobial susceptibility tests were conducted in 96-well microplates using the broth microdilution procedure described in the Clinical and Laboratory Standards Institute (CLSI) guidelines. […] After incubation for 18 h at 37°C, the absorbance at 600 nm (A600) was recorded using a microplate reader (Bio-Rad laboratory Ltd., UK) and the percentage of bacterial cell inhibition with respect to vehicles (1% DMSO) was calculated. The MIC was defined as the lowest compound concentration at which the growth of bacteria was inhibited by ≥90%. Three independent assays were performed for each test.
In general terms: In broth dilution the organism is exposed to a series of concentrations in liquid medium.

The subject of a further experiment is E. faecium ATCC 700221. The experiment is described as above. As to conditions: Enterococcus faecium, ATCC700221; E. faecium ATCC 700221 (vancomycin-resistant); brain heart infusion broth, 18 h at 37°C; growth inhibited by ≥90%; read-out: MIC. Format: cell-based.
Text: as §2, §3

[3] abbreviates: FtsZ 3.5 µM, 500 µM GTP, 30 min at 37°C, MOPS pH 6.5, read-out: IC50±SEM, S. aureus FtsZ GTPase activity (relative IC50).

For orientation: IC50 means the concentration needed to halve the response being measured. Usually MIC stands for the smallest concentration in the dilution series that meets the test's criterion for growth inhibition.

Structures are written as SMILES. Where two headings read alike, the source gives them in different places. A value given as a limit tells only on which side of the number the result lay.

As to `COc1ccc2cc3[n+](cc2c1OCCCOc1ccc(Cl)cc1)CCc1cc2c(cc1-3)OCO2` [Compound 2], at S. aureus FtsZ [1] (setting [3]), the IC50 came out at 37.8 ± 3.8 µM. Besides, the “GTPase activity of S. aureus FtsZ” value at S. aureus FtsZ [1] (in the presence of 25 µM compound) came to 0.24 GTP/FtsZ/min; on S. aureus FtsZ [1] (in the presence of 50 µM compound), 0.1 GTP/FtsZ/min. Further, on S. aureus FtsZ [2] (4 µM compound), the “reduction of the thickness of the bundles of FtsZ protofilaments” value turned out to be 70%. Besides, the MIC with E. faecium ATCC 49624 and in the experiment with E. faecium ATCC 700221 was 4 µg/mL throughout.

Regarding `COc1ccc2cc3[n+](cc2c1OCCCOc1ccccc1)CCc1cc2c(cc1-3)OCO2` [Compound 1], the IC50 at S. aureus FtsZ [1] (setting [3]) was determined as 56.8 ± 10.4 µM. On S. aureus FtsZ [2] (8.8 µM compound), the “reduction of the thickness of the bundles of FtsZ protofilaments” value amounted to 60%. The minimal inhibitory concentration (MIC) in the experiment on E. faecium ATCC 49624 and with E. faecium ATCC 700221 was 8 µg/mL each time.

Take `COc1ccc2cc3[n+](cc2c1OCCCOc1ccccc1C)CCc1cc2c(cc1-3)OCO2` [Compound 4]: the half-maximal inhibitory concentration (IC50) at S. aureus FtsZ [1] (setting [3]) came out at 63.7 ± 4.8 µM. In addition, the minimal inhibitory concentration (MIC) in the experiment on E. faecium ATCC 49624 and in the experiment on E. faecium ATCC 700221 was 8 µg/mL in each case.

Regarding `COc1ccc(OCCCOc2c(OC)ccc3cc4[n+](cc23)CCc2cc3c(cc2-4)OCO3)cc1` [Compound 3], the IC50 at S. aureus FtsZ [1] (setting [3]) is 47.3 ± 4.6 µM. Also, the MIC in the experiment with E. faecium ATCC 49624 and in the experiment with E. faecium ATCC 700221 was 16 µg/mL in each case.

`COc1ccc2cc3[n+](cc2c1OC)CCc1cc2c(cc1-3)OCO2` [Berberine, Berberine chloride] gave a 50% inhibitory concentration (IC50) against S. aureus FtsZ [1] of 272 ± 46.6 µM. Further, the minimum inhibitory concentration (MIC) in the experiment with E. faecium ATCC 49624 and in the experiment with E. faecium ATCC 700221 was above 196 µg/mL each time.

On to `COc1ccc2cc3[n+](cc2c1OCCCCOc1ccccc1)CCc1cc2c(cc1-3)OCO2` [Compound 6], for which the concentration for half-maximal inhibition (IC50) on S. aureus FtsZ [1] (setting [3]) was determined as 63.5 ± 4.7 µM. In addition, the MIC with E. faecium ATCC 49624 and in the experiment with E. faecium ATCC 700221 was 8 µg/mL throughout.

Consider `COc1ccc2cc3[n+](cc2c1OCCCOc1ccc([N+](=O)[O-])cc1)CCc1cc2c(cc1-3)OCO2` [Compound 5], for which, at S. aureus FtsZ [1] (setting [3]), the IC50 is 43.4 ± 5.2 µM. The MIC in the experiment with E. faecium ATCC 49624 and in the experiment on E. faecium ATCC 700221 was 8 µg/mL in each case.
